Data as given in article PMC12096669, “Structural isomerisation affects the antitubercular activity of adamantyl-isoxyl adducts” (Journal of Enzyme Inhibition and Medicinal Chemistry, 2025).
Values after ≈ are worked out from the molar mass of the structure shown. Where two headings read alike, the source gives them in different places.

Experiments:
[1] = test system: M. smegmatis mc^2155 mmpL3 knockout strain expressing MmpL3-Mtb-G253E; set-up: method as in PMID 22344175; conditions: M. smegmatis mc^2155, MmpL3-Mtb-G253E in a mmpL3 knockout strain; cited from earlier work
[2] = test system: Mtb mc^28245 pMV261; assay: microbe, parasite or virus in culture; type: cell-based
[3] = test system: Mtb mc^28247 pMV261; assay: microbe, parasite or virus in culture; type: cell-based
[4] = test system: Mtb mc^28250 pMV261; assay: microbe, parasite or virus in culture; type: cell-based
[5] = test system: Mtb mc^28256 pMV261; assay: microbe, parasite or virus in culture; type: cell-based; conditions: Mycobacterium tuberculosis, read-out: Mtb MIC95
[6] = test system: Mtb mc^27092 pMV261-hadABC; assay: microbe, parasite or virus in culture; type: cell-based; conditions: Mycobacterium tuberculosis, read-out: Mtb MIC95
[7] = test system: Mtb mc^27092 pMV261-mmpL3; assay: microbe, parasite or virus in culture; type: cell-based, Mycobacterium tuberculosis; conditions: for MIC: Mycobacterium tuberculosis, read-out: Mtb MIC95
[8] = test system: Mtb mc^27092 pMV261-pks13; assay: microbe, parasite or virus in culture; type: cell-based; conditions: Mycobacterium tuberculosis, read-out: Mtb MIC95
[9] = test system: Mtb mc^27092 pMV261-desA3; assay: microbe, parasite or virus in culture; type: cell-based; conditions: Mycobacterium tuberculosis, read-out: Mtb MIC95
[10] = test system: Mtb mc^27092 pMV261- ethA; assay: microbe, parasite or virus in culture; type: cell-based; conditions: Mycobacterium tuberculosis, read-out: Mtb MIC95
[11] = Mycobacterium tuberculosis; read-out: Mtb MIC95
[12] = Mycobacterium tuberculosis, read-out: Mtb MIC95

Row | SMILES | increase in the resistance [1] [fold] | MIC [2, 11] [µg/mL] | MIC [3, 11] [µg/mL] | MIC [4, 11] [µg/mL] | MIC ([5]; mc^28256 pMV261, REMA) [µg/mL] | MIC ([6]; mc^27092 pMV261-hadABC, REMA) [µg/mL] | MIC ([7]; mc^27092 pMV261-mmpL3, REMA) [µg/mL] | MIC ([8]; mc^27092 pMV261-pks13, REMA) [µg/mL] | MIC ([9]; mc^27092 pMV261-desA3, REMA) [µg/mL] | MIC ([10]; mc^27092 pMV261- ethA, REMA) [µg/mL] | increase in resistance on overexpression of MmpL3 [7] [fold] | MIC [2, 12] [µg/mL] | MIC [3, 12] [µg/mL] | MIC [4, 12] [µg/mL] | MIC [5] [µg/mL] | MIC [9] [µg/mL] | MIC [6] [µg/mL] | MIC [7] [µg/mL] | MIC [10] [µg/mL] | MIC [8] [µg/mL]
1 | O=C(Nc1ccc(F)c(F)c1F)NC1C2CC3CC(C2)CC1C3 (stereo not shown) [AU1235] | 2 |  |  |  |  |  |  |  |  |  |  |  |  |  |  |  |  |  |  | 
2 | CC(=O)NC[C@H]1CN(c2ccc(N3CCOCC3)c(F)c2)C(=O)O1 [LZD, linezolid] |  | 0.9 (≈ 2.67 µM) | 0.88 (≈ 2.61 µM) | 0.77 (≈ 2.28 µM) | 0.66 (≈ 1.96 µM) | 0.72 (≈ 2.13 µM) | 0.86 (≈ 2.55 µM) | 0.93 (≈ 2.76 µM) |  |  |  |  |  |  |  |  |  |  |  | 
3 | CO[C@H]1/C=C/O[C@@]2(C)Oc3c(C)c(O)c4c(O)c(c(/C=N/N5CCN(C)CC5)c(O)c4c3C2=O)NC(=O)/C(C)=C\C=C\[C@H](C)[C@H](O)[C@@H](C)[C@@H](O)[C@@H](C)[C@H](OC(C)=O)[C@@H]1C [RIF, rifampicin] |  | 0.05 (≈ 0.0608 µM) |  |  |  | 0.06 (≈ 0.0729 µM) | 0.06 (≈ 0.0729 µM) | 0.06 (≈ 0.0729 µM) | 0.06 (≈ 0.0729 µM) | 0.06 (≈ 0.0729 µM) |  |  |  |  |  |  |  |  |  | 
4 | CC(C)=CCC/C(C)=C/CNCCNC1C2CC3CC(C2)CC1C3 (stereo not shown) [SQ109, N-Adamantan-2-yl-N’-((E)-3,7-dimethylocta-2,6-dienyl)ethane-1,2-diamine] |  | 0.31 (≈ 0.938 µM) | 0.3 (≈ 0.908 µM) | 0.3 (≈ 0.908 µM) | 0.27 (≈ 0.817 µM) | 0.31 (≈ 0.938 µM) | 0.74 (≈ 2.24 µM) | 0.31 (≈ 0.938 µM) |  |  |  |  |  |  |  |  |  |  |  | 
5 | CC(C)CCOc1ccc(NC(=S)Nc2ccc(OCCC(C)C)cc2)cc1 [ISO, 4,4′-diisoamyloxydiphenylthiourea] |  | 0.18 (≈ 0.449 µM) | 0.34 (≈ 0.849 µM) | 0.2 (≈ 0.499 µM) | 0.19 (≈ 0.474 µM) | 0.71 (≈ 1.77 µM) | 0.21 (≈ 0.524 µM) | 0.34 (≈ 0.849 µM) | 0.26 (≈ 0.649 µM) | 0.09 (≈ 0.225 µM) |  |  |  |  |  |  |  |  |  | 
6 | NNC(=O)c1ccncc1 [INH, isoniazid] |  |  | 0.04 (≈ 0.292 µM) |  |  | 0.04 (≈ 0.292 µM) | 0.04 (≈ 0.292 µM) | 0.04 (≈ 0.292 µM) | 0.04 (≈ 0.292 µM) | 0.04 (≈ 0.292 µM) |  |  |  |  |  |  |  |  |  | 
7 | CC(C)CCOc1ccc(NC(=S)NC23CC4CC(CC(C4)C2)C3)cc1 [Ad-1-ISO, 1-((3s,5s,7s)-adamantan-1-yl)-3–(4-(isopentyloxy)phenyl)thiourea] |  | 1.11 (≈ 2.98 µM) | 1.08 (≈ 2.9 µM) | 1.12 (≈ 3.01 µM) | 1.13 (≈ 3.03 µM) | 1.09 (≈ 2.93 µM) | 1.16 (≈ 3.11 µM) | 1.11 (≈ 2.98 µM) | 1.07 (≈ 2.87 µM) | 1.2 (≈ 3.22 µM) |  |  |  |  |  |  |  |  |  | 
8 | CC[C@@H](CO)NCCN[C@@H](CC)CO [EMB, Ethambutol] |  | 1.82 (≈ 8.91 µM) | 1.97 (≈ 9.64 µM) | 1.89 (≈ 9.25 µM) | 1.88 (≈ 9.2 µM) | 2.54 (≈ 12.4 µM) | 2.02 (≈ 9.89 µM) | 2 (≈ 9.79 µM) | 2.95 (≈ 14.4 µM) | 2.09 (≈ 10.2 µM) |  |  |  |  |  |  |  |  |  | 
9 | CC(C)CCOc1ccc(NC(=S)NC2C3CC4CC(C3)CC2C4)cc1 (stereo not shown) [Ad-2-ISO, 1-((1r,3r,5r,7r)-adamantan-2-yl)-3–(4-(isopentyloxy)phenyl)thiourea] |  | 3.55 (≈ 9.53 µM) | 2.5 (≈ 6.71 µM) | 3.1 (≈ 8.32 µM) | 2.9 (≈ 7.78 µM) | 4.34 (≈ 11.6 µM) | 4.2 (≈ 11.3 µM) | 3.37 (≈ 9.05 µM) | 2.93 (≈ 7.86 µM) | 2.63 (≈ 7.06 µM) | ~2 |  |  |  |  |  |  |  |  | 
10 | CCc1cc(C(N)=S)ccn1 [ETH, ethionamide] |  |  |  |  |  |  |  |  |  |  |  | 0.98 (≈ 5.89 µM) | 0.98 (≈ 5.89 µM) | 1.02 (≈ 6.14 µM) | 1.08 (≈ 6.5 µM) | 1.02 (≈ 6.14 µM) | 2.02 (≈ 12.2 µM) | 0.99 (≈ 5.95 µM) | 0.65 (≈ 3.91 µM) | 1.01 (≈ 6.08 µM)
